Experimental data as given in US12110295B2, “WD40 repeat domain protein 5 (WDR5) degradation/disruption compounds and methods of use” (Icahn School of Medicine at Mount Sinai, priority 2018, dated 2024).
Entries after “also recorded” stand apart in the source; their conditions may differ.

Tests used:
MV4;11 cells = test: Cell viability assay (trypan blue, live cell count) in MV4;11 cells; format: cell-based; settings: 0.1, 0.5, 1, 5 and 10 μM, 72 h, FIG. 4
Experimental: MV4;11 cells were treated with DMSO or the indicated compounds at indicated concentration of 0.1 μM, 0.5 μM, 1 μM, 5 μM, and 10 μM for 72 hours.
MV4;11 cells were purchased from ATCC and cultured in RPMI 1640 supplemented with 10% FBS and 1% Penicillin/Streptomycin.
0.5×10^6 MV4;11 cells were seeded in 2 mL medium for each well in 12-well plates. WDR5 degraders in DMSO were added to the medium at indicated concentrations. DMSO was used as the control. Each treatment was done in duplicate wells. After 72 h treatment, 1 part cell suspension from each treatment was mixed with 1 part 0.4% trypan blue respectively. The mixture was allowed to incubate for ˜3 min at room temperature and live cells were counted by automated cell counter.

WDR5 [1] = target: T1, WDR5 (Homo sapiens, UniProt P61964); settings: MV4;11 cells, summary of FIGS. 1-3
Experimental: MV4;11 cells were treated with DMSO or indicated compounds at 1 μM and 10 μM for 18 hours.
MV4;11 cells were treated with DMSO or indicated compounds at 0.1 μM, 0.5 μM, 1 μM, 5 μM, and 10 μM for 18 hours.
MV4;11 cells were treated with DMSO or indicated compounds at a fixed concentration of 0.5 μM for 1, 2, 4, 8, 16, or 24 hours.
MV4;11 cells were treated with DMSO or indicated compounds at 0.1 μM and 0.5 μM for 18 hours. […] MV4;11 cells were treated with DMSO or indicated compounds at 0.1 μM and 1.0 μM for 18 hours.
WDR5 degraders were dissolved in DMSO and DMSO with no degraders was used as the control. 1×10^6 MV4;11 cells or 1×10^5 MIAPACA2 or 2×10^5 Hela cells were seeded in 2 mL medium for each well in 24-well plates.
And cells were collected at indicated timepoints: 1 h, 2 h, 4 h, 8 h, 16 h, and 24 h.

WDR5 [2] = target: T1, WDR5; test: Western blot of WDR5 protein levels in MIAPACA2 cells; format: cell-based; parameters: After WDR5 degrader treatment, cells were collected and lysed; endogenous in cells; host or cells: MV4;11 and/or MIAPACA2; settings: 18 h; for reduction of WDR5 protein levels, concentration-dependent: MIAPACA2 cells, 0.1, 0.5, 1, 5 and 10 μM, FIG. 5
Experimental: MIAPACA2 cells were treated with DMSO or indicated compounds at 0.1 μM, 0.5 μM, 1 μM, 5 μM, and 10 μM for 18 hours.
MIAPACA2 cells were treated with DMSO or indicated compounds at 0.5 μM and 1.0 μM for 18 hours.
MIAPACA2 cells were treated with DMSO or indicated compounds at 0.1 μM and 0.5 μM for 18 hours.
MIAPACA2 cells were treated with DMSO or indicated compounds at 0.5 μM and 1.0 μM or at 1.0 μM and 10 μM for 18 hours.
(§1) MIAPACA2 and Hela cells were cultured in DMEM supplemented with 10% FBS and 1% Penicillin/Streptomycin.
WDR5 degraders were dissolved in DMSO and DMSO with no degraders was used as the control. 1×10^6 MV4;11 cells or 1×10^5 MIAPACA2 or 2×10^5 Hela cells were seeded in 2 mL medium for each well in […].
For prescreening of all the compounds, each test compound was added to the medium at indicated concentrations. After 18 h treatment, cells were collected.
After WDR5 degrader treatment, cells were collected and lysed. Total cell lysates were used for western blot. The following primary antibodies were used: WDR5 (Santa Cruz), vinculin (Cell Signaling Technology), tubulin (Cell Signaling Technology), GAPDH (Santa Cruz). Blots were imaged using fluorescence-labeled secondary antibodies on ChemiDoc™ Imaging Systems.

WDR5 [3] = target: T1, WDR5; test: Screening of putative WDR5 degraders by Western blot in MV4;11 and/or MIAPACA2 cells; format: cell-based; parameters: After WDR5 degrader treatment, cells were collected and lysed; endogenous in cells; host or cells: MV4;11 and/or MIAPACA2; settings: summary of screening, FIGS. 6-10
How it was run: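 MV4;11 (1×10^6/well) or MIAPACA2 (1×10^5/well) cells treated 18 h with compound at paired doses between 0.1 and 10 μM, DMSO as control. Total lysates immunoblotted for WDR5 with vinculin, tubulin or GAPDH loading controls; fluorescent secondary detection.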

MIAPACA2 cells = test: MTT cell proliferation assay in MIAPACA2 cells; format: cell-based; settings: 0.01, 0.03, 0.1, 0.5, 1, 5 and 10 μM, 6 days, FIG. 11
Experimental: Assessment of the cell proliferation effects of WDR5 degraders XF056-132, XF056-173 and XF067-67 in MIAPACA2 cells (FIG. 11). MIAPACA2 cells were treated with DMSO or indicated compounds at 0.01 μM, 0.03 μM, 0.1 μM, 0.5 μM, 1 μM, 5 μM, and 10 μM for 6 days. MTT assay was used for detecting cell proliferation effects.
as §1

| SMILES | reduction of WDR5 protein levels in a concentration- and time-dependent manner (WDR5 [1]) | reduction of WDR5 protein levels, concentration-dependent (WDR5 [2]) | effective degradation of WDR5 in MV4;11 and/or MIAPACA2 cells (WDR5 [3]) | also measured |
| --- | --- | --- | --- | --- |
| Cc1ncsc1-c1ccc(CNC(=O)[C@@H]2C[C@@H](O)CN2C(=O)[C@@H](NC(=O)CCCCCCCCCC(=O)NCCN2CCN(Cc3cccc(-c4ccc(N5CCN(C)CC5)c(NC(=O)c5c[nH]c(=O)cc5C(F)(F)F)c4)c3)CC2)C(C)(C)C)cc1 [XF048-133, N^1-((S)-1-((2S,4R)-4-hydroxy-2-((4-(4-methylthiazol-5-yl)benzyl)carbamoyl)pyrrolidin-1-yl)-3,3-dimethyl-1-oxobutan-2-yl)-N^11-(2-(4-((4′-(4-methylpiperazin-1-yl)-3′-(6-oxo-4-(trifluoromethyl)-1,6-dihydropyridine-3-carboxamido)-[1,1′-biphenyl]-3-yl)methyl)piperazin-1-yl)ethyl)undecanediamide] | effective in reducing WDR5 protein levels | reduced WDR5 protein levels | able to effectively degrade WDR5 | viability of MV4;11 cells (MV4;11 cells): reduced the viability of MV4;11 cells much more significantly than the WDR5 inhibitor OICR-9429; also recorded: reduced the viability of MV4;11 cells much more significantly than the WDR5 inhibitor OICR-9419 |
| Cc1ncsc1-c1ccc([C@H](C)NC(=O)[C@@H]2C[C@@H](O)CN2C(=O)[C@@H](NC(=O)CCCCCCCCCC(=O)NCCN2CCN(Cc3cccc(-c4ccc(N5CCN(C)CC5)c(NC(=O)c5c[nH]c(=O)cc5C(F)(F)F)c4)c3)CC2)C(C)(C)C)cc1 [XF050-166, N^1-((S)-1-((2S,4R)-4-hydroxy-2-(((S)-1-(4-(4-methylthiazol-5-yl)phenyl)ethyl)carbamoyl)pyrrolidin-1-yl)-3,3-dimethyl-1-oxobutan-2-yl)-N^11-(2-(4-((4′-(4-methylpiperazin-1-yl)-3′-(6-oxo-4-(trifluoromethyl)-1,6-dihydropyridine-3-carboxamido)-[1,1′-biphenyl]-3-yl)methyl)piperazin-1-yl)ethyl)undecanediamide] | – | – | able to effectively degrade WDR5 | WDR5 degradation effects (WDR5 [2]; MIAPACA2 cells, 0.5 μM and 1.0 μM, FIG. 7): better WDR5 degradation effects than XF048-132 and XF048-140 |
| CN1CCN(c2ccc(-c3cccc(CN4CCN(CCNC(=O)CCCCCCCNc5cccc6c5C(=O)N(C5CCC(=O)NC5=O)C6=O)CC4)c3)cc2NC(=O)c2c[nH]c(=O)cc2C(F)(F)F)CC1 (stereo not shown) [XF048-140, N-(3′-((4-(2-(8-((2-(2,6-dioxopiperidin-3-yl)-1,3-dioxoisoindolin-4-yl)amino)octanamido)ethyl)piperazin-1-yl)methyl)-4-(4-methylpiperazin-1-yl)-[1,1′-biphenyl]-3-yl)-6-oxo-4-(trifluoromethyl)-1,6-dihydropyridine-3-carboxamide] | – | reduced WDR5 protein levels | able to effectively degrade WDR5 | – |
| CN1CCN(c2ccc(-c3cccc(CN4CCN(CCNC(=O)CCOCCOCCOCCOCCOCCNc5cccc6c5C(=O)N(C5CCC(=O)NC5=O)C6=O)CC4)c3)cc2NC(=O)c2c[nH]c(=O)cc2C(F)(F)F)CC1 (stereo not shown) [XF048-145, N-(3′-((4-(1-((2-(2,6-dioxopiperidin-3-yl)-1,3-dioxoisoindolin-4-yl)amino)-18-oxo-3,6,9,12,15-pentaoxa-19-azahenicosan-21-yl)piperazin-1-yl)methyl)-4-(4-methylpiperazin-1-yl)-[1,1′-biphenyl]-3-yl)-6-oxo-4-(trifluoromethyl)-1,6-dihydropyridine-3-carboxamide] | effective in reducing WDR5 protein levels | – | – | – |
| CN1CCN(c2ccc(-c3cccc(CN4CCN(CCNC(=O)CCOCCOCCNc5cccc6c5C(=O)N(C5CCC(=O)NC5=O)C6=O)CC4)c3)cc2NC(=O)c2c[nH]c(=O)cc2C(F)(F)F)CC1 (stereo not shown) [XF048-142, N-(3′-((4-(2-(3-(2-(2-((2-(2,6-dioxopiperidin-3-yl)-1,3-dioxoisoindolin-4-yl)amino)ethoxy)ethoxy)propanamido)ethyl)piperazin-1-yl)methyl)-4-(4-methylpiperazin-1-yl)-[1,1′-biphenyl]-3-yl)-6-oxo-4-(trifluoromethyl)-1,6-dihydropyridine-3-carboxamide] | effective in reducing WDR5 protein levels | – | – | – |
| Cc1ncsc1-c1ccc(CNC(=O)[C@@H]2C[C@@H](O)CN2C(=O)[C@@H](NC(=O)CNC(=O)c2ccc(F)c(-c3ccc(N4C[C@@H](C)N(C)[C@@H](C)C4)c(NC(=O)c4c[nH]c(=O)cc4C(F)(F)F)c3)c2)C(C)(C)C)cc1 [XF056-132, N-(2′-fluoro-5′-((2-(((S)-1-((2S,4R)-4-hydroxy-2-((4-(4-methylthiazol-5-yl)benzyl)carbamoyl)pyrrolidin-1-yl)-3,3-dimethyl-1-oxobutan-2-yl)amino)-2-oxoethyl)carbamoyl)-4-((3R,5S)-3,4,5-trimethylpiperazin-1-yl)-[1,1′-biphenyl]-3-yl)-6-oxo-4-(trifluoromethyl)-1,6-dihydropyridine-3-carboxamide] | – | – | able to effectively degrade WDR5 | proliferation of MIAPACA2 cells (MIAPACA2 cells): significantly decreased the cell proliferation; also recorded: significantly reduced the proliferation of MIAPACA2 cells; degradation of WDR5 (WDR5 [2]; MIAPACA2 cells, 0.1 μM and 0.5 μM, FIG. 8A-8C): can effectively degrade WDR5 at 0.1 μM and 0.5 μM |
